Laboratory results from patent publication US12661335B2, “Halogenated xanthene-containing topical anti-gram-positive bacterial ophthalmic composition and method” (Provectus Pharmatech, Inc., priority 2021, dated 2026).
Converted amounts (≈) assume the structure as drawn. Read-outs that look alike come from different tables or passages of the source.

Assays:
[1] = tested on: Bacillus cereus NRRL B-569; assay: MIC, broth dilution method, dark condition; assay type: cell-based; conditions: NRRLB569, Table 1 entry 2, 24 h
[2] = tested on: Staphylococcus aureus subsp. Aureus BAA-1683 (a MRSA strain); assay: MIC, broth dilution method, dark condition; assay type: cell-based; conditions: Table 1 entry 5, 24 h
[3] = tested on: Staphylococcus aureus subsp. Aureus BAA-42 ™ (a MRSA strain); assay: MIC, broth dilution method, dark condition; assay type: cell-based; conditions: Table 1 entry 7, 24 h
[4] = tested on: Staphylococcus aureus subsp. Aureus BAA-44 ™ (a MRSA strain); assay: MIC, broth dilution method, dark condition; assay type: cell-based; conditions: Table 1 entry 8, 24 h
[5] = tested on: Staphylococcus aureus subsp. Aureus 33592 ™ (a methicillin and gentamicin resistant strain); assay: MIC, broth dilution method, dark condition; assay type: cell-based; conditions: Table 1 entry 11, 24 h
[6] = tested on: Staphylococcus aureus AIS2006032 (a vancomycin-resistant strain); assay: MIC, broth dilution method, dark condition; assay type: cell-based; conditions: Table 1 entry 12, 24 h
[7] = tested on: Staphylococcus aureus BR 5 (A methicillin and vancomycin resistant strain); assay: MIC, broth dilution method, dark condition; assay type: cell-based; conditions: Table 1 entry 13, 24 h
[8] = tested on: Staphylococcus aureus USA100 strains 71080 (VRS8, a vancomycin-resistant strain); assay: MIC, broth dilution method, dark condition; assay type: cell-based; conditions: Table 1 entry 15, 24 h
[9] = tested on: Enterococcus faecium 349 ™; assay: MIC, broth dilution method, dark condition; assay type: cell-based; conditions: Table 1 entry 18, 24 h
[10] = tested on: Enterococcus faecium BAA-2320; assay: MIC, broth dilution method, dark condition; assay type: cell-based; conditions: BAA2320, Table 1 entry 19, 24 h
[11] = tested on: Enterococcus faecium NR-32065 (a vancomycin- resistant strain); assay: MIC, broth dilution method, dark condition; assay type: cell-based; conditions: Table 1 entry 20, 24 h
[12] = tested on: Enterococcus faecium patient #3-1, NR-31912 (a vancomycin-resistant strain); assay: MIC, broth dilution method, dark condition; assay type: cell-based; conditions: Table 1 entry 21, 24 h
[13] = tested on: Enterococcus faecium UAA714 (a vancomycin-resistant strain); assay: MIC, broth dilution method, dark condition; assay type: cell-based; conditions: Table 1 entry 22, 24 h
[14] = tested on: Streptococcus pneumoniae 6301 ™; assay: MIC, broth dilution method, dark condition; assay type: cell-based
[15] = tested on: Mycobacterium smagmatis 607 ™; assay: MIC, broth dilution method, dark condition; assay type: cell-based, Mycobacterium smegmatis
[16] = tested on: Mycobacteroides abscessus 19977 ™; assay: MIC, broth dilution method, dark condition; assay type: cell-based; conditions: Table 1 entry 29, 24 h
[17] = tested on: Saccharomyces cerevisiae BY4743; assay: MIC, broth dilution method, dark condition; assay type: cell-based; conditions: Table 1 entry 30, 24 h
[18] = tested on: 7 methicillin-resistant S. aureus (MRSA) with different SCCmec types; assay: Bactericidal activity under fluorescent or LED light, MRSA panel; assay type: cell-based, Staphylococcus aureus; conditions: under the fluorescent or LED light; Table 1 entries 5-11
Description: (§1) Minimum inhibitory concentrations (MICs) were determined by broth dilution microplate alamar blue assay or by OD measurement. All compounds were stored in DMSO or saline (1 mg/100 μL concentration). This concentration was used as the stock solution for all MIC studies. Each compound from stock solution was placed in the first well of a sterile 96 well plate and a serial dilution was conducted with the culturing broth (total volume of 10 μL). The bacterial suspension at log phase (190 μL) was added to each well (total volume of 200 μL), and was incubated for 24 h at 37° C. 20 μL of resazurin (0.02%) was added to each well and incubated for 4 h, (National Committee for Clinical Laboratory Standards (NCCLS) method (pink=growth, blue=no visible growth)). The OD measurements were performed for all experiments prior to performing colorimetric assays. The absorbance of each well was also measured at 570 and 600 nm via UV-Vis.

[19] = tested on: biofilms of E. faecium NR-32065; assay: Biofilm eradication assay; assay type: cell-based, Enterococcus faecium; conditions: fluorescent and dark conditions; concentration-dependent
From the text: Linezolid is not an effective drug in eradicating biofilms of Gram-positive bacteria, but has a beneficial effect in prevention of biofilm formations [Reiter et al., J. Med. Microbiol. 62:394-399 (2013)], and was used as a control.
We confirm that RB is an excellent agent to eradicate biofilms of Gram-positive bacteria, including drug-resistant strains. […] These studies indicate that RB has the potential antibacterial agent to kill drug-resistant bacteria in any growth phases.

[20] = tested on: multidrug-resistant Fusarium keratoplasticum; conditions: RB about 0.1%, photoactivated by 15 minutes irradiation at 375 nm or 518 nm; cited from earlier work
[21] = tested on: Fusarium keratoplasticum-infected cornea; conditions: one patient, cited from earlier work
[22] = tested on: vancomycin-resistant S. aureus strains; conditions: under either lighting condition (fluorescent or LED); entries 12-16
Description: as §1

F. solani = conditions: three days of incubation, cited from earlier work
A. fumigattus = conditions: three days of incubation, cited from earlier work

## O=C(O)c1c(Cl)c(Cl)c(Cl)c(Cl)c1-c1c2cc(I)c(=O)c(I)c-2oc2c(I)c(O)c(I)cc12 [RB, 4,5,6,7-tetrachloro-2′,4′,5′,7′-tetraiodofluorescein]
[1]
  MIC: 50 µg/mL (≈ 51.4 µM)
[2]
  MIC: 50 µg/mL (≈ 51.4 µM)
[3]
  MIC: 50 µg/mL (≈ 51.4 µM)
[4]
  MIC: 50 µg/mL (≈ 51.4 µM)
[5]
  MIC: 50 µg/mL (≈ 51.4 µM)
[6]
  MIC: 50 µg/mL (≈ 51.4 µM)
[7]
  MIC: 25 µg/mL (≈ 25.7 µM)
[8]
  MIC: 25 µg/mL (≈ 25.7 µM)
[9]
  MIC: 50 µg/mL (≈ 51.4 µM)
[10]
  MIC: 25 µg/mL (≈ 25.7 µM)
[11]
  MIC: 50 µg/mL (≈ 51.4 µM)
[12]
  MIC: 50 µg/mL (≈ 51.4 µM)
[13]
  MIC: 50 µg/mL (≈ 51.4 µM)
[14]; Streptococcus pneumoniae, Table 1 entry 24, broth dilution, dark, 24 h
  MIC: > 100 µg/mL
[14]; entry 24
  susceptibility to RB: showed resistance
[15]; Mycobacterium, Table 1 entry 25, broth dilution, dark, 24 h, read-out: MIC
  MIC: 25 µg/mL (≈ 25.7 µM)
[15]; dark condition, triplicated, read-out: MIC (μg/mL) against M. smegmatis 607 ™ (wild-type)
  MIC: 12.5 µg/mL (≈ 12.8 µM)
[16]
  MIC: 50 µg/mL (≈ 51.4 µM)
[17]
  MIC: 125 µg/mL (≈ 128 µM)
[18]
  concentration at which all MRSA strains were killed: 0.78 to 3.1 µg/mL
[19]
  viable cells in biofilm: significantly reduced
[20]
  fungal growth inhibition in vitro: could inhibit the fungal growth
[21]; RB dripped on debrided cornea 30 minutes, 518 nm light 0.9 J/cm^2
  time to resolution of pain post irradiation: 36 h
[21]; four days after treatment
  decrease of infiltrate size in all directions: approximately 1 mm
[22]
  concentration at which all vancomycin-resistant strains were killed: below 1.0 μg/mL
F. solani; 518 nm, 5.4 J/cm^2
  Day 3 Growth Inhibition Percentage, RB + 518 nm Irradiation: 78.2 ± 2.1 Percentage
F. solani; dark, no irradiation
  Day 3 Growth Inhibition Percentage, RB Only: 7.3 ± 1.1 Percentage
A. fumigattus; 518 nm, 5.4 J/cm^2
  Day 3 Growth Inhibition Percentage, RB + 518 nm Irradiation: 79.8 ± 9 Percentage
A. fumigattus; dark, no irradiation
  Day 3 Growth Inhibition Percentage, RB Only: 6.6 ± 0. Percentage
